Measurements taken from PubChem BioAssay AID330 (DTP/NCI, 2004).
Toxic doses and inconclusive results are not listed. The calls were made as follows: active = survival T/C of 150% or more; inactive = T/C below 125% in these data.

System: P388 leukemia ip, CD2F1 mice, survival T/C
Test: NCI In Vivo Anticancer Drug Screen. Data for tumor model P388 Leukemia (intraperitoneal) in CD2F1 (CDF1) mice
Details: endpoint: median survival time, schedule: Q01DX001 (ip), vehicle: distilled water + Tween-80, higher = longer survival
How it was run: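 Mice carrying the transplanted tumor received test compound or vehicle. Survival was recorded in each group, and the value is the treated-group measurement divided by that of the vehicle-treated control group.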

Measured: T/C

O=NN(C(=O)NCc1cccnc1)C1CCCCC1
inactive: dose: 25.0 mg/kg/injection 115 % of control | dose: 50.0 mg/kg/injection 110 % of control | dose: 100.0 mg/kg/injection 106 % of control | dose: 200.0 mg/kg/injection 102 % of control | dose: 400.0 mg/kg/injection 102 % of control
